In patent publication US9376433B2, “(AZA-)isoquinolinone derivatives” (MERCK PATENT GMBH, priority 2012, dated 2016):
pEC50, pIC50: −log10 of the molar value. Each block holds one compound with its values, some of them ahead of it.

Columns and labels:
Tankyrase-1 = target: T1, Tankyrase-1 (Homo sapiens, UniProt O95271); test: Tankyrase 1 autoparsylation assay (HTRF enzyme assay); type: biochemical; conditions: GST-tagged Tankyrase-1 (1023-1327 aa)
T1 construct: GST-tagged Tankyrase-1 (1023-1327 aa)
T1 sequence (O95271 1023-1327): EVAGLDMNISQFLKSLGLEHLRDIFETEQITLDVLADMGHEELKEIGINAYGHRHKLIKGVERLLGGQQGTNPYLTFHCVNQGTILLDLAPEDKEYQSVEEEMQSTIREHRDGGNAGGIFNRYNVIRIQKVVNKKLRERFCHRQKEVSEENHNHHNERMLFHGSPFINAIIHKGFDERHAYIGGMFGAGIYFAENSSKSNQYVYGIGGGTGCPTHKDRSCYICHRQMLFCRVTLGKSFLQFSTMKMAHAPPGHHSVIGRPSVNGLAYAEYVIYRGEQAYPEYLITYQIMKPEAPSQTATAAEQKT
Protocol: (§1) Biochemical activity testing of Tankyrase 1 and 2: Autoparsylation assay
(§2) The autoparsylation assay is run in two steps: the enzymatic reaction in which GST-tagged Tankyrase-1, resp Tankyrase-2 transferred biotinylated ADP-ribose to itself from biotinylated NAD as co-substrate and the detection reaction where a time resolved FRET between cryptate labelled anti-GST bound to the GST tag of the enzyme and Xlent® labelled-streptavidin bound the biotin-parsylation residue is analysed. The autoparsylation activity was detectable directly via the increase in HTRF signal.
(§3) The autoparsylation assay is performed as 384-well HTRF® (Cisbio, Codolet, France) assay format in Greiner low volume nb 384-well microtiter plates and is used for high throughput screen. 250 nM GST-tagged Tankyrase-1 (1023-1327 aa), respectively about 250 nM GST-tagged Tankyrase-2 (873-1166 aa) and 5 μM bio-NAD (Biolog, Life science Inst., Bremen, Germany) as co-substrate are incubated in a total volume of 5 μl (50 mM HEPES, 4 mM Mg-chloride, 0.05% Pluronic F-68, 1.4 mM DTT, 0.5% DMSO, pH 7.7) in the absence or presence of the test compound (10 dilution concentrations) for 90 min at 30° C. The reaction is stopped by the addition of 1 μl 50 mM EDTA solution. 2 μl of the detection solution (1.6 μM SA-Xlent® (Cisbio, Codolet, France), 7.4 nM Anti-GST-K® (Eu-labelled anti-GST, Cisbio, Codolet, France) in 50 mM HEPES, 800 mM KF, 0.1% BSA, 20 mM EDTA, 0.1% CHAPS, pH 7.0) are added. After 1 h incubation at room temperature the HTRF is measured with an Envision multimode reader (Perkin Elmer LAS Germany GmbH) at excitation wavelength 340 nm (laser mode) and emission wavelengths 615 nm and 665 nm. The ratio of the emission signals is determined. The full value used is the inhibitor-free reaction. The pharmacological zero value used is XAV-939 (Tocris) in a final concentration of 5 μM. The inhibitory values (IC50) are determined using either the program Symyx Assay Explorer® or Condosseo® from GeneData.

Tankyrase-2 = target: T2, Tankyrase-2 (Homo sapiens, UniProt Q9H2K2); test: Tankyrase 2 autoparsylation assay (HTRF enzyme assay); type: biochemical; conditions: GST-tagged Tankyrase-2 (873-1166 aa)
T2 construct: GST-tagged Tankyrase-2 (873-1166 aa)
T2 sequence (Q9H2K2 873-1166): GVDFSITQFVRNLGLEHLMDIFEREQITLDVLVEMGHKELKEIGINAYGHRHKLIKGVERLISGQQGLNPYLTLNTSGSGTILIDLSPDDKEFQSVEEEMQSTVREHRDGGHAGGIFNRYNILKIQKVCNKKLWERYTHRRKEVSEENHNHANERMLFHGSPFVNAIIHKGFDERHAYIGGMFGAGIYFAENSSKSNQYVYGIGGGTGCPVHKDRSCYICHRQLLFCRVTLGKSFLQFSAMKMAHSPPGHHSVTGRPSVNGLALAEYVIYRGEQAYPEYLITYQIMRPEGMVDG
Protocol: as §1, §2, §3

tankyrase 1/2 = test: Cellular inhibition of tankyrase: increase of Axin2 level in DLD1 cells (Luminex); type: cell-based; conditions: DLD1 colon carcinoma cells, 24 hours, read-out: EC50 tankyrase 1/2 (cell assay)
Protocol: Measurement of Cellular Inhibition of Tankyrase
Since Tankyrases have been described to modulate cellular level of Axin2 (Huang et al., 2009; Nature) the increase of Axin2 level is used as read-out for determination of cellular inhibition of Tankyrases in a Luminex based assay.
Cells of the colon carcinoma cell line DLD1 are plated in 96 well plates with 1.5×10^4 cells per well. Next day, cells are treated with a serial dilution of test compound in seven steps as triplicates with a final DMSO concentration of 0.3%. After 24 hours, cells are lysed in lysis buffer (20 mM Tris/HCl pH 8.0, 150 mM NaCl, 1% NP40, 10% Glycerol) and lysates are cleared by centrifugation through a 96 well filter plate (0.65 μm). Axin2 protein is isolated from cell lysates by incubation with a monoclonal anti-Axin2 antibody (R&D Systems #MAB6078) that is bound to fluorescent carboxybeads. Then, bound Axin2 is specifically detected with a polyclonal anti-Axin2 antibody (Cell Signaling #2151) and an appropriate PE-fluorescent secondary antibody. The amount of isolated Axin2 protein is determined in a Luminex^200 machine (Luminex Corporation) according to the manufacturer's instruction by counting 100 events per well. Inhibition of Tankyrase by test compounds results in higher levels of Axin2 which directly correlates with an increase of detectable fluorescence. As controls cells are treated with solvent alone (neutral control) and with a Tankyrase reference inhibitor IWR-2 (3E-06 M) which refers as control for maximum increase of Axin2. For analysis, the obtained data are normalized against the untreated solvent control and fitted for determination of the EC50 values using the Assay Explorer software (Accelrys).

DLD-1-cancer cells = conditions: DLD-1 cells; Huang et al., 2009, Nature; cited from earlier work
TNKS1 = target: T3, TNKS1 (Homo sapiens, UniProt O95271); test: TNKS1 activity ELISA (autoparsylation assay); type: biochemical; conditions: GST-tagged Tnks-1 (1023-1327 aa), luminescence
T3 construct: GST-tagged Tnks-1 (1023-1327 aa, prepared in-house); made in house
T3 sequence (O95271 1023-1327): as the sequence (O95271 1023-1327) above
Protocol: Description of the TNKS1 and TNKS2 ELISA Assay
Biochemical activity testing of TNKS 1 and 2: activity ELISA (Autoparsylation assay)
For analysis of autoparsylation activity of TNKS 1 and 2 an activity ELISA iss performed: In the first step GST tagged TNKS is captured on a Glutathione coated plate. Then the activity assay with biotinylated NAD is performed in the absence/presence of the compounds. During the enzymatic reaction GST tagged TNKS transfers biotinylated ADP-ribose to itself from biotinylated NAD as co-substrate. For the detection streptavidin-HRP conjugate is added that binds to the biotinylated TNKS and is thereby captured to the plates. The amount of biotinylated resp. autoparsylated TNKS is detected with a luminescence substrate for HRP. The level of the luminescence signal correlats directly with the amount of autoparsylated TNKS and therefore with activity of TNKS.
The acitivity ELISA is performed in 384 well Glutathione coated microtiter plates (Express capture Glutathione coated plate, Biocat, Heidelberg, Germany). The plates are pre-equilibrated with PBS. Then the plates are incubated with 50 μl 20 ng/well GST-tagged Tnks-1 (1023-1327 aa, prepared in-house), respectively GST-tagged Tnks-2 (873-1166 aa, prepared in-house) in assay buffer (50 mM HEPES, 4 mM Mg-chloride, 0.05% Pluronic F-68, 2 mM DTT, pH 7.7) overnight at 4° C. The plates are washed 3 times with PBS-Tween-20. The wells are blocked by incubation at room temperature for 20 minutes with 50 μl blocking buffer (PBS, 0.05% Tween-20, 0.5% BSA). Afterwards the plates are washed 3 times with PBS-Tween-20. The enzymatic reaction is performed in 50 μl reaction solution (50 mM HEPES, 4 mM Mg-chloride, 0.05% Pluronic F-68, 1.4 mM DTT, 0.5% DMSO, pH 7.7) with10 μM bio-NAD (Biolog, Life science Inst., Bremen, Germany) as co-substrate in the absence or presence of the test compound (10 dilution concentrations) for 1 hour at 30° C. The reaction is stopped by 3 times washing with PBS-Tween-20. For the detection 50 μl of 20 ng/μl Streptavidin, HRP conjugate (MoBiTec, Göttingen, Germany) in PBS/0.05% Tween-20/0.01% BSA are added and the plates are incubated for 30 minutes at room temperature. After three times washing with PBS-Tween-20 50 μl of SuperSignal ELISA Femto Maximum sensitivity substrate solution (ThermoFisherScientific (Pierce), Bonn, Germany) are added. Following a 1 minute incubation at room temperature luminescence signals are measured with an Envision multimode reader (Perkin Elmer LAS Germany GmbH) at 700 nm. The full value used is the inhibitor-free reaction. The pharmacological zero value used is XAV-939 (Tocris) in a final concentration of 5 μM. The inhibitory values (IC50) are determined using either the program Symyx Assay Explorer® or Condosseo® from GeneData.

Compound: COC(=O)c1ccc(-c2cc3ccccc3c(=O)[nH]2)cc1 [Compound A2, 4-(1-oxo-1,2-dihydro-isoquinolin-3-yl)-benzoic acid methyl ester]
pIC50 (Tankyrase-1): > 6.52
pIC50 (Tankyrase-2): > 6.52
pEC50 (tankyrase 1/2): 5.52 to 6.52

Compound: CC(C)(O)c1ccc(-c2cc3ccc(Cl)cc3c(=O)[nH]2)cc1 [Compound A25, 7-chloro-3-[4-(1-hydroxy-1-methyl-ethyl)phenyl]-2H-isoquinolin-1-one]
pIC50 (Tankyrase-1): > 6.52
pIC50 (Tankyrase-2): 5.52 to 6.52
pEC50 (tankyrase 1/2): 5.52 to 6.52

Compound: CC(C)(F)c1ccc(-c2cc3ccccc3c(=O)[nH]2)cc1 [Compound A13, 3-[4-(1-fluoro-1-methyl-ethyl)-phenyl]-2H-isoquinolin-1-one]
pIC50 (Tankyrase-1): > 6.52
pIC50 (Tankyrase-2): 5.52 to 6.52
pEC50 (tankyrase 1/2): 5.52 to 6.52

Compound: COC(=O)c1ccc(-c2cc3ccc(F)cc3c(=O)[nH]2)cc1 [Compound A4, 4-(7-Fluoro-1-oxo-1,2-dihydro-isoquinolin-3-yl)-benzoic acid methyl ester]
pIC50 (Tankyrase-1): 5.52 to 6.52
pIC50 (Tankyrase-2): 5.52 to 6.52
pEC50 (tankyrase 1/2): 5.52 to 6.52

Compound: Cc1ccc2cc(-c3ccc(C(C)(C)O)cc3)[nH]c(=O)c2c1 [Compound A7, 3-[4-(1-hydroxy-1-methyl-ethyl)-phenyl]-7-methyl-2H-isoquinolin-1-one]
pIC50 (Tankyrase-1): 5.52 to 6.52
pIC50 (Tankyrase-2): 5.52 to 6.52
pEC50 (tankyrase 1/2): 5.52 to 6.52

pIC50 (Tankyrase-1): 5.52 to 6.52
pIC50 (Tankyrase-2): 4.30 to 5.52
Compound: Cc1ccc(-c2cc3c(C(F)(F)F)cccc3c(=O)[nH]2)cc1 [Compound A30, 3-(p-tolyl)-5-(trifluoromethyl)-2H-isoquinolin-1-one]

pIC50 (Tankyrase-1): 5.52 to 6.52
pIC50 (Tankyrase-2): 5.52 to 6.52
Compound: Cn1cc(-c2ccc(-c3cc4cnccc4c(=O)[nH]3)cc2)cn1 [Compound A19, 3-[4-(1-Methyl-1H-pyrazol-4-yl)-phenyl]-2H-[2,6]naphthyridin-1-one]

Compound: Cn1cc(-c2ccc(-c3cc4ccc(Cl)cc4c(=O)[nH]3)cc2)cn1 [Compound A32, 7-chloro-3-[4-(1-methyl-1H-pyrazol-4-yl)-phenyl]-2H-isoquinolin-1-one]
pIC50 (Tankyrase-1): > 6.52
pIC50 (Tankyrase-2): 5.52 to 6.52
pEC50 (tankyrase 1/2): 5.52 to 6.52

Compound: CC1(c2ccc(-c3cc4ccc(F)cc4c(=O)[nH]3)cc2)CCCO1 (stereo not drawn) [Compound A21, 7-fluoro-3-[4-(2-methyltetrahydrofuran-2-yl)phenyl]-2H-isoquinolin-1-one]
pIC50 (Tankyrase-1): > 6.52
pIC50 (Tankyrase-2): 5.52 to 6.52
pEC50 (tankyrase 1/2): 5.52 to 6.52

Compound: O=c1[nH]c(-c2ccc(CO)cc2)cc2ccccc12 [Compound A8, 3-(4-hydroxymethyl-phenyl)-2H-isoquinolin-1-one]
pIC50 (Tankyrase-1): > 6.52
pIC50 (Tankyrase-2): 5.52 to 6.52
pEC50 (tankyrase 1/2): > 6.52

Compound: Oc1nc(-c2ccc(C(F)(F)F)cc2)nc2c1CSCC2 [XAV939]
growth of DLD-1-cancer cells (DLD-1-cancer cells): inhibits growth

Compound: CC(C)(C)c1ccc(-c2cc3cnccc3c(=O)[nH]2)cc1 [Compound A1, 3-(4-tert-butyl-phenyl)-2H-[2,6]naphthyridin-1-one]
pIC50 (Tankyrase-1): > 6.52
pIC50 (Tankyrase-2): 5.52 to 6.52
pIC50 (TNKS1): > 6.52
pEC50 (tankyrase 1/2): > 6.52
